Test results published in patent US9259452B2, “Deacetylase inhibitor therapy” (Celgene Corporation, priority 2006, dated 2016).
“And” between values parts separate entries of the source, which are not always exact repeats. Equal values may be shown once. Marks after values point to notes of the source that are not given here.

Experiments:
[1] = QTc analysis (heart rate-corrected QT interval) on ECGs, phase II trial; details: for Least Square mean QT interval: all doses of first 6 cycles
[2] = Post-treatment echocardiogram, global LV function; type: in vivo, human
Description: Post treatment evaluation of cardiac function (LVEF): Echocardiograms to evaluate cardiac function were also performed on the day following the last dose of the cycle; day 6 for patients treated on days 1 and 5, or day 16 for patients treated on days 1, 8 and 15.
Post-treatment global LV function: To determine whether the observed ECG abnormalities were associated with acute LV wall motion abnormalities, echocardiograms were performed on the day following the last dose of the cycle (d 6 for patients treated on days 1 and 5, and day 16 for patients treated on days 1, 8, and 15).

[3] = Toxicities and cardiac events observed on the phase II trial; type: in vivo, human
From the text: The protocol (NCI 01-C-0049 or 1312) and informed consent were approved by the Institutional Review Board of the National Cancer Institute. All data used in this analysis were obtained from patients who signed an informed consent and were enrolled and treated at the NIH Warren Grant Magnuson Clinical Center. Toxicities were reported using the National Cancer Institute Common Toxicity Criteria, CTC version 2.0. The Inclusion Criteria required measurable disease, an age of 18 years or older, an ECOG performance status of 0, 1 or 2, and a life expectancy of >12 wk. Required laboratory values included AGC≧1000/μL, platelets≧100,000/μL, bilirubin <1.5× the institutional upper limit of normal (ULN), AST <3×ULN, and creatinine <1.5×ULN. Patients with a myocardial infarction within the previous 6 months, a left ventricular ejection fraction (LVEF) below normal (<45% if performed by MUGA, or <50% if performed by echocardiogram or cardiac MRI), a corrected QT interval of >500 ms, unstable angina, or third degree heart block (unless with pacemaker) were not eligible to enroll.
Subsequently, the protocol was amended and all patients were treated on days 1, 8 and 15 of a 28 day cycle, with a starting dose of 14 mg/m^2. This change was made for improved patient tolerability. […] Provisions for dose reduction were made in the case of grade 3 or 4 toxicity. Alternatively, a dose increase was allowed for patients who had no serious toxicities.

[4] = Serum cardiac troponin I and CPK levels prior to and on the day after each dose
Description: An additional ECG was obtained on day 3 of the first cycle. ECGs were obtained using an HP Pagewriter XLi or a GE Marquette MAC1200 and recorded at 25 mm/sec, with an amplitude of 10 mm/mV and with 60 Hz filtering. They were analyzed using Pagewriter A.04.01 ECG analysis software (Philips Medical Systems). The QT interval measurement in this program is made by averaging the five longest QT intervals with a T or T′ wave amplitude greater than 0.15 mV. […] Grade 1 toxicity was defined as nonspecific T-wave abnormalities, (flattening or inversion without ST segment abnormalities) and Grade 2 as ST segment depression of at least 1 mm in at least 2 leads. If both were observed, then the ECG was assigned a grade 2 toxicity. […] The QTc analysis was performed on ECGs obtained during the first six cycles from patients treated on the day 1, 8 and 15 schedule (37 patients). ECGs from patients with an intraventricular conduction delay, defined as QRS duration greater than 100 ms, were excluded from the QTc analysis since in that setting the QTc interval includes a variable depolarization interval that leads to a prolonged QTc value (22).

[5] = Bazett's formula, 2051 ECGs, 42 patients
[6] = first 6 cycles, all 42 patients
[7] = re-calculated using Friderica's formula
[8] = among 123 ECGs, day 6 or day 16
[9] = obtained in parallel with elevated cTnI samples, individual cases

## C/C=C1\NC(=O)[C@H]2CSSCC/C=C/[C@H](CC(=O)N[C@H](C(C)C)C(=O)N2)OC(=O)[C@H](C(C)C)NC1=O [romidepsin, (1S,4S,10S,16E,21R)-7-[(2Z)-ethylidene]-4,21-diisopropyl-2-oxa-12,13-dithia-5,8,20,23-tetraazabicyclo[8.7.6]tricos-16-ene-3,6,9,19,22-pentanone]
[1]; 31 patients, first six cycles
  Maximal increase of QTc, median: 11.3%
  Maximum increase in QTc: 78.25 ms
[1]; 349 doses, 31 patients
  Doses associated with a 30 to 60 ms prolongation of QTc: 25%
  Doses associated with a greater than 60 ms prolongation of QTc: 2.6%
[1]; 670 ECGs obtained immediately post-treatment or on the day following treatment
  Median change of QTc from baseline: 13.42 ms
[1]; Bazett's formula
  Share of ECGs with QTc over 450 ms that were obtained immediately post treatment or on the day following treatment: Eighty-nine
[1]; Bazett's formula, 42 patients
  Number of patients with QTc greater than 450 ms: 28
  Number of patients with QTc greater than 480 ms: 10
  Number of patients with QTc greater than 500 ms: 4
[1]; [5]
  Number of ECGs with QTc greater than 450 ms: 163
  Number of ECGs with QTc greater than 480 ms: 20
  Number of ECGs with QTc greater than 500 ms: 5
  Share of ECGs with QTc greater than 450 ms: 8.0%
  Share of ECGs with QTc greater than 480 ms: 1%
  Share of ECGs with QTc greater than 500 ms: 0.2%
[1]; C1
  QTc Interval Difference [D2]-[4 hr], Median: 0.0 ms
  QTc Interval Difference [D3]-[Baseline], Median: -2.5 ms
  QTc Interval Difference [D3]-[D2], Median: -20.0 ms
[1]; C1 (cycle 1)
  QTc Interval Difference [D2]-[Baseline], Median: 10.8 ms
[1]; C1 (cycle 1), first dose, day 1, 8, 15 schedule
  QTc Interval Difference [4 hr]-[Baseline], Median: 16.5 ms
[1]; C2
  QTc Interval Difference [4 hr]-[Baseline], Median: 8.0 ms
  QTc Interval Difference [D2]-[Baseline], Median: 13.2 ms
[1]; C3
  QTc Interval Difference [4 hr]-[Baseline], Median: 15.5 ms
  QTc Interval Difference [D2]-[Baseline], Median: 5.3 ms
[1]; C4
  QTc Interval Difference [4 hr]-[Baseline], Median: 15.9 ms
  QTc Interval Difference [D2]-[Baseline], Median: 15.5 ms
[1]; C5
  QTc Interval Difference [4 hr]-[Baseline], Median: 18.2 ms
  QTc Interval Difference [D2]-[Baseline], Median: 14.8 ms
[1]; C6
  QTc Interval Difference [4 hr]-[Baseline], Median: 18.8 ms
  QTc Interval Difference [D2]-[Baseline], Median: 17.8 ms
[1]; Post dose, 31 patients, p < 0.0001 vs pre-dose
  Least Square mean QT interval: 424.1*
[1]; Pre-dose, 31 patients
  Least Square mean QT interval: 409.7
[1]; baseline QTc of 415.75
  Maximum increase in QTc over that patient's mean baseline QTc: 19%
[1]; day 1 (pre-treatment), 31 patients, repeated measures ANOVA
  Least Square mean QT interval: 410.3
[1]; day 2 (day after treatment), 31 patients
  Least Square mean QT interval: 422.7
[1]; day 8 (pre-treatment), 31 patients
  Least Square mean QT interval: 410.8
[1]; day 9 (day after treatment), 31 patients
  Least Square mean QT interval: 426.0
[1]; day 15 (pre-treatment), 31 patients
  Least Square mean QT interval: 408.0
[1]; day 16 (day after treatment), 31 patients
  Least Square mean QT interval: 423.7
[1]; [6]
  Doses associated with a 30 to 60 ms prolongation of QTc: 24%
  Doses associated with a greater than 60 ms prolongation of QTc: 3.2%
[1]; first cycle
  Time after treatment by which QTc changes had reverted to baseline: ≤ 48 h
[1]; of 670 ECGs obtained immediately post-treatment or on the day following treatment, 31 patients
  Number of ECGs demonstrating an increased QTc from baseline: 514
[1]; [7]
  Number of ECGs with QTc greater than 450 ms: 27
  Number of ECGs with QTc greater than 480 ms: 3
  Number of patients with QTc greater than 450 ms: 15
  Number of patients with QTc greater than 480 ms: 3
  QTc greater than 500 ms: no QTc was greater than 500 ms
  Share of ECGs with QTc greater than 450 ms: 1.3%
  Share of ECGs with QTc greater than 480 ms: 0.1%
[2]; [8]
  ECGs with ST-segment depression obtained on the same day as the echocardiogram: 23
  ECGs with T-wave flattening obtained on the same day as the echocardiogram: 82
  ECGs with no abnormalities obtained on the same day as the echocardiogram: 18
[2]; day following last dose of the cycle (day 6 or day 16), 145 echocardiograms, 34 patients
  Echocardiograms demonstrating a change from baseline (acute LV wall motion): None
[3]; 42 patients, phase II trial
  Observed toxicities: primarily nausea and fatigue
[3]; one patient with significant ectopy prior to initiation of protocol
  Pre-treatment and post-treatment EP studies: no change in intracardiac conduction or inducibility of any arrhythmias
[3]; telemetry, abnormal magnesium and potassium levels
  Cardiac event in a patient with QTc greater than 500: 12 beat run of VT that was asymptomatic and did not recur
[4]; from 8 patients, 601 pre-treatment and 590 day-after samples
  Number of cTnI samples found to be elevated: 10
[4]; [9]
  CPK Post-treatment: 20 and 28 (2×) and 18 and 16 and 85 and 157 and 144 and 162
  CPK Pre-treatment: 29 and 43 and 27 and 47 and 70 and 200 and 179 and 28 and 39 and 160
[4]; range, unchanged from pre-treatment
  CPK samples obtained in parallel with the 10 elevated cTnI samples: 16-200
[4]; serum cTnI, day following treatment, individual cases
  Troponin Post-treatment: 2.1-3.3 ng/ml and ≦0.2 ng/ml and 3.3 ng/ml and 2.1 ng/ml and 2.6 ng/ml and 8.3 ng/ml and 2.3 ng/ml and 15.8 ng/ml and 3.6 ng/ml
[4]; serum cTnI, individual cases
  Troponin Repeat (of elevated pre-treatment sample): ≤ 0.2 ng/ml and ≦0.2 ng/ml
[4]; serum cTnI, individual cases with an elevated sample among 1191 samples
  Troponin Pre-treatment: 3.4-11.3 ng/ml and 11.3 ng/ml and ≦0.2 ng/ml and 3.4 ng/ml and 6.4 ng/ml
[4]; serum cTnI, repeated the same day, individual cases
  Troponin Repeat (of elevated post-treatment sample): ≤ 0.2 ng/ml and ≦0.2 ng/ml
